Measured values reported in BindingDB's records for PubMed 37981443 (National Clinical Research Center for Geriatrics).

What was measured:
[1] = molecular target: 1-phosphatidylinositol 3-phosphate 5-kinase (Homo sapiens, UniProt Q9Y2I7); assay: Inhibition of N-terminal His-tagged human PIKfyve expressed in Sf9 insect cells incubated for 1 hr by enzyme assay
[2] = molecular target: Procathepsin L (Homo sapiens, UniProt P07711); assay: Inhibition of Cathepsin L (unknown origin)
Sequence of Procathepsin L (P07711 whole entry): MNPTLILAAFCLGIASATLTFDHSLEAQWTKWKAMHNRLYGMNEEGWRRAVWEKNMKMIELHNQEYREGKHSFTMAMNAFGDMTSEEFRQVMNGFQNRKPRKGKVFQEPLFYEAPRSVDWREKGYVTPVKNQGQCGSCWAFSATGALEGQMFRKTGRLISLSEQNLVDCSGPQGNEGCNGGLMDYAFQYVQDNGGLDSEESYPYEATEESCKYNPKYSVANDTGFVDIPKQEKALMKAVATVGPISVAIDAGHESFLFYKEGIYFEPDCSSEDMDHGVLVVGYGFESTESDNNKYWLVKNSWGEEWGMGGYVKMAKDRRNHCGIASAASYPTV

Sequence of 1-phosphatidylinositol 3-phosphate 5-kinase (Q9Y2I7 whole entry): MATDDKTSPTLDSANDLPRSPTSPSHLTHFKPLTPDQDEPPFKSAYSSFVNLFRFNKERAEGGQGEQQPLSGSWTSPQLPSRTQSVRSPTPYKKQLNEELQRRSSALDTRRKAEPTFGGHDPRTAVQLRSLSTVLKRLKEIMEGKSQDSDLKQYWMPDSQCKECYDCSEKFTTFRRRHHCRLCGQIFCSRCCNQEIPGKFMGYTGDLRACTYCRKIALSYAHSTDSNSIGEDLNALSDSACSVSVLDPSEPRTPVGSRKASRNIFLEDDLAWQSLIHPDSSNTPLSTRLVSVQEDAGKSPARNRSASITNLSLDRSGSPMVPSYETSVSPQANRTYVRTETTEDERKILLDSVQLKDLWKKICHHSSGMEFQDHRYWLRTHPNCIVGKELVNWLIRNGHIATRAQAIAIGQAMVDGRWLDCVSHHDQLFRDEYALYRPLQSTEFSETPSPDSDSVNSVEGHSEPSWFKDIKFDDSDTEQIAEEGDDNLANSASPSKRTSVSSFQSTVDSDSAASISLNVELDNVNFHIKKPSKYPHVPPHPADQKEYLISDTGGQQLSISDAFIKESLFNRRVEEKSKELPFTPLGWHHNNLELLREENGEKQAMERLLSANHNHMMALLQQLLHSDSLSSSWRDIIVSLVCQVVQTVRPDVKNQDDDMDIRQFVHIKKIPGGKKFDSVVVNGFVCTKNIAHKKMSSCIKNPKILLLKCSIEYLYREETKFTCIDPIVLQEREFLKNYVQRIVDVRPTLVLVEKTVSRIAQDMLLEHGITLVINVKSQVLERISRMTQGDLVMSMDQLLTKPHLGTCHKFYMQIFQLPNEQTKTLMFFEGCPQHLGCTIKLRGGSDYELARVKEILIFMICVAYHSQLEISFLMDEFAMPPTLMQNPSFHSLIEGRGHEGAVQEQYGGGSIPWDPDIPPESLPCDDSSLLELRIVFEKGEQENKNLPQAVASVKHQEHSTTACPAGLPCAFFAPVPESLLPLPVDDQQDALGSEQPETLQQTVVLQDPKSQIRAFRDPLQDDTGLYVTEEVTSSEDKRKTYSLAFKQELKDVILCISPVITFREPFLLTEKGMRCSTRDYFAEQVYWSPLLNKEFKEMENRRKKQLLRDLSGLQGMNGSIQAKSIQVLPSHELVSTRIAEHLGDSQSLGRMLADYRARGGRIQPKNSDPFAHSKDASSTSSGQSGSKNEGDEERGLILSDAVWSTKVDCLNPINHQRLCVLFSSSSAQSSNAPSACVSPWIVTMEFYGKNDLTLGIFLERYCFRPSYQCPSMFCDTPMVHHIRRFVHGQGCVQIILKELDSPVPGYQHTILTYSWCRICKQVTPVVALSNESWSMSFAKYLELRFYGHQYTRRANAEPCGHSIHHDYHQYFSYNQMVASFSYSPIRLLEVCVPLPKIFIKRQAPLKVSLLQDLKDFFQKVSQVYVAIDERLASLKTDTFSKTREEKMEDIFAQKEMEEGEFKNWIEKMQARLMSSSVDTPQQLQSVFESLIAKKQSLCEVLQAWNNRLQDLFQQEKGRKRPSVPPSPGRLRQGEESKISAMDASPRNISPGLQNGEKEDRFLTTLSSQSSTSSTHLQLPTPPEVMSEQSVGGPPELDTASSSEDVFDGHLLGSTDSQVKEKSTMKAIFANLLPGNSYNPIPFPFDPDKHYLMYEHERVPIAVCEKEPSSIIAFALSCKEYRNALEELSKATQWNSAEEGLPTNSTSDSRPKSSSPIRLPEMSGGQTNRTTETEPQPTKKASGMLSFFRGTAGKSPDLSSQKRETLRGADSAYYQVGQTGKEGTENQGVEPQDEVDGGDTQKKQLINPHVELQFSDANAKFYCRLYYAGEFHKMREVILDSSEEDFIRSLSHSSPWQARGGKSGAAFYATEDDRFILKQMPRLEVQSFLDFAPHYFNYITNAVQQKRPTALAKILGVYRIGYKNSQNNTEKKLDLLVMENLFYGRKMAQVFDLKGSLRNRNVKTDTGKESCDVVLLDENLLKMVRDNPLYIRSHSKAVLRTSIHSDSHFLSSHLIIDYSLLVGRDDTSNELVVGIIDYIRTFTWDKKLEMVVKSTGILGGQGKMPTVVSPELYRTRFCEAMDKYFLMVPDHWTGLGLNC

Row | Structure (SMILES) | IC50 [1] | IC50 [2]
1 | COc1ccc2[nH]c(C)c(/C=C/C(=O)c3ccncc3)c2c1 | 0.0051 µM | 
2 | CCCC[C@@H](C=O)NC(=O)[C@H](CC(C)C)NC(=O)OCc1ccccc1 [[(S)-1-((S)-1-Formyl-pentylcarbamoyl)-3-methyl-butyl]-carbamic acid benzyl ester] |  | 0.044 µM
